Row | melting point | SMILES
1 | 137 to 138 °C | CCOP(=O)(Cc1ccc(NC(=O)C2=Cc3cc(C4CCCCC4)ccc3CC2)cc1)OCC
2 | 123 to 126 °C | CCCCCCCCCC(=O)Nc1c2c(nc3ccccc13)CCCC2
3 | 187 to 189 °C | CCC(OC(=O)CS(C)(=O)=O)c1ccc(Cl)c2nc3n(c12)CCCN3c1ccc(Cl)cc1Cl (stereo unspecified)
4 | 235 to 237 °C | Cc1cc(-c2nnc3c4ccccc4c(OCn4cccn4)nn23)no1
5 | 115 to 116 °C | CC(=O)OCCn1nc(-c2cc(C(C)(C)C)cc(C(C)(C)C)c2)c2cccnc21
6 | 214 to 217 °C | NC(=O)Cc1ccc2c(c1)C(=O)Cc1cccnc1O2
7 | 41 to 43 °C | N#CC(CCSC(F)(F)F)S(=O)CCC(F)(F)C(F)(F)F (stereo unspecified)
8 | 98 °C | CC(C)=CCC(C)(C)C(=O)/C=C/[C@@H]1[C@H]2CC(=O)O[C@H]2C[C@H]1OC(=O)c1ccccc1
9 | 135 to 137 °C | CN(C)C(=O)C(CCO)C1CCc2[nH]c3ccccc3c21 (stereo unspecified)
10 | 94 to 96 °C | Cc1cn(NCCCc2ccncc2F)c2ccc(OCc3ccccc3)cc12
11 | 169 to 171 °C | CC1Cc2c(c(Cl)cc(F)c2N2C(=O)C3=C(CCCC3)C2=O)O1 (stereo unspecified)
12 | 151 to 153 °C | CCOc1cc(N)c(Cl)cc1C(=O)NCC1CN(Cc2ccc(F)cc2)CCO1 (stereo unspecified)
13 | 73 to 75 °C | OC[C@H]1COc2cc(Cl)ccc2O1
14 | 144 to 145 °C | COc1ccc(C2=NN(C3CCCC3)C(=O)[C@H]3CC=CC[C@@H]23)cc1OC1CCCC1 (relative stereo)
15 | 157 to 159 °C | COC(=O)C[C@@H]1C[C@@H](COc2ccc(-c3ccc(C(=N)NC(=O)OCc4ccccc4)cc3)cc2)N(c2ccccc2)C1=O
16 | 230 to 232 °C | O=C(O)CCc1c(C(=O)O)[nH]c2cc(I)ccc12
17 | 178 to 181 °C | CCOC(=O)c1ccc(SC)cc1C(=O)OCC
18 | 170 to 171 °C | CC1(C)CN=C2C(=O)c3cc(S(=O)(=O)N4CCc5ccccc54)ccc3N2C1
19 | 159 °C | Cc1nc(NCC(=O)c2ccccc2)c2cc(C)sc2n1
20 | 194 to 195 °C | O=C1NC(=S)SC1=Cc1ccc2c(c1)OCO2
21 | 188 to 191 °C | CC(=O)n1nc(-c2c(C)cc(C)c([N+](=O)[O-])c2C)n2nc(C(C)(C)C)c(Cl)c12
22 | 94 °C | CCC(O)CN1CCC(CCN2CCN(c3cccc(Cl)c3Cl)CC2)CC1 (stereo unspecified)
23 | 216 to 218 °C | O=C(/C=C/c1c(-c2ccc(F)cc2)nc2sccn12)c1ccc2ccccc2c1
24 | 233 to 236 °C | Nc1cnc(-c2ccc(F)cc2)n(CC(=O)NC(Cc2ccccc2)C(=O)c2nc3ccccc3o2)c1=O (stereo unspecified)

Row | melting point | SMILES
25 | > 330 °C | COc1ccc2[nH]c3c(c2c1)CC(=O)Nc1cccnc1-3
26 | 102 to 103 °C | C=CCNc1c(C(=O)OCC)cnc2cn(C(C)(C)OC)nc12
27 | 40 to 43 °C | OCC1Cc2c(F)ccc(Br)c2O1 (stereo unspecified)
28 | 149 to 151 °C | CCCCc1oc2ccccc2c1-c1ncc(-c2ccc3cc(OCC(=O)OC)ccc3c2)o1
29 | 220 to 221 °C | CCOC(=O)c1c(-c2ccc(OC)c(OC)c2)c2cc(C)ccc2[nH]c1=O
30 | 137 to 139 °C | O=C(OCc1ccccc1)N1CCC2(CC1)CC(=O)N(OC[N+](=O)[O-])C2=O
31 | 169 to 173 °C | C[C@@H]1NC(=O)C[C@]1(C)O
32 | 215 to 217 °C | Cn1c(=O)c(-c2c(Cl)cccc2Cl)cc2cnc(Nc3cccc(CO)c3)nc21
33 | 191 to 197 °C | O=c1c2c([nH]n1-c1c(F)cc(Cl)c3nc(Cl)sc13)CCCC2
34 | 195 to 197 °C | CCOP(=O)(CC(=O)N1c2ccccc2NC(=O)c2ccccc21)OCC
35 | 200 to 201 °C | CCOC(=O)c1cnc2c(OCc3ccccc3)c(F)c(F)cc2c1O
36 | 236 to 238 °C | Nc1c2c(nc3ccccc13)CCCC2=O
37 | 212 to 213 °C | COCc1ccoc1C(=O)c1[nH]c2cc(Cl)ccc2c1CC(=O)O
38 | 234 to 245 °C | Cc1nn(CC(=O)O)cc1C(=O)Nc1ccc(OCC(C)(C)C)c(C#N)c1
39 | 51 to 53 °C | CCCOC(C)c1ccc(OCc2ccccc2)cc1 (single isomer, unassigned; (+))
40 | 108 to 110 °C | NS(=O)(=O)c1cc(C(=O)CCCCN(CCc2ccccc2OC(F)(F)F)C(=O)C(F)(F)F)cc2c1OCC2
41 | 156 to 157 °C | CCOC(=O)C1=C(COCc2nc(CCN3C(=O)c4ccccc4C3=O)cs2)NC(C)=C(C(=O)OC)C1c1ccccc1Cl (stereo unspecified)
42 | 204 °C | O=[N+]([O-])C=Cc1cnc2c(OCc3ccccc3)cccn12
43 | 149 to 150 °C | CCOC(=O)CN1C(=O)c2ccc3ccccc3c2S1(=O)=O
44 | 72 to 74 °C | CSCCC(=O)Nc1sc(-c2cccnc2)nc1SC
45 | 110 °C | CC(C)(C)c1ccc(S(=O)(=O)N2c3ccccc3C[C@H]2C(=O)NCc2ccc(NCC(=O)O)cc2)cc1
46 | 184 to 185 °C | Cc1cc(-c2[nH]c3ccc(N)cc3c2C)cc(C)c1O
47 | 139 °C | Cn1cncc1C(O)(c1ccc(Cl)cc1)c1ccc2c(c1)c(-c1cccc(Cl)c1)nc1nnnn12 (stereo unspecified)
48 | 114 to 115 °C | Nc1[nH]ncc1C(=O)c1cccs1

Row | melting point | SMILES
49 | 68 to 69 °C | COc1ccc(NC(C)C)c(S)c1
50 | 136 to 138 °C | CC(C)(C)OC(=O)C[C@H](NC(=O)CNC(=O)CCc1ccc(C(=N)N)cc1)C(=O)NC1(C(=O)O)CCCC1
51 | 157 to 158 °C | ON=C1CCCc2occ(-c3cccc(Cl)c3)c21
52 | 161 °C | CCOCC(=O)OC1(C(=O)CO)CCC2C3CCC4=CC(=O)CCC4(C)C3C(O)CC21C (stereo unspecified)
53 | 65 to 67 °C | CCOC(=O)CC(NC(=O)C(C)C)C(=O)c1ccco1 (stereo unspecified)
54 | 112 to 113 °C | COC(=O)ON(C)C(=O)C(C)Nc1c([N+](=O)[O-])cc(C)cc1[N+](=O)[O-] (stereo unspecified)
55 | 184 °C | Cc1nc2ccc(S(=O)(=O)n3c(CCCC(=O)O)cc4nc(Cl)ccc43)cc2s1
56 | 78 to 80 °C | COC(=O)CCC(=O)c1ccc(OC)c(CCl)c1
57 | 152 to 154 °C | Cn1cc(C2OC(=O)NC2=O)c2ccccc21 (stereo unspecified)
58 | 132 °C | CC(=O)OC1COC(Oc2ccc(C(=S)c3ccc(C)cc3)cc2)C(OC(C)=O)C1OC(C)=O (stereo unspecified)
59 | 132 to 133 °C | CCOC(=O)/C=C/c1cn(-c2ccc(C(F)(F)F)cn2)nc1C1CCCCC1
60 | 217 to 218 °C | O=C1CCC(c2ccc(NC3=NCCS3)cc2)=NN1
61 | 116 to 118 °C | CCOC(=O)Nc1ccc(OC23CC4CC(CC(C4)C2)C3)cc1
62 | 167 to 170 °C | CN(C)c1nc(=O)c2cccnc2n1Cc1ccc(F)cc1
63 | 92 to 93 °C | FC(F)(F)Oc1ccc2c(c1)nc(/C=C/c1ccccc1)n2-c1ccccn1
64 | 99 to 101 °C | COc1cc(F)c(C)cc1C#N
65 | 230 °C | CN1CCN(c2cc3c(cc2F)c(=O)c(C(=O)O)cn3C2CC2)CC1c1ccsc1 (stereo unspecified)
66 | 135 to 137 °C | COc1ccc(N2CCN(c3c(C)c(C)c4c(c3C)CC(C)(C)O4)CC2)cc1OC
67 | 213 °C | Cc1c(C(=O)Nc2ccc(N3CCC(N4CCC(O)CC4)CC3)c(C#N)c2)cnn1-c1ccc(Cl)cc1
68 | 190 to 192 °C | Nc1ccc(F)c(-c2ccncc2)c1F
69 | 178 to 180 °C | COc1ccc(Cc2cc(C3CCN(C(=O)Nc4ccccc4)CC3)nc(N)n2)cc1
70 | 134 to 136 °C | COc1ccc(Cl)cc1C(=O)NCCc1ccc(-c2ccccc2)c(S(N)(=O)=O)c1
71 | 110 °C | CCCCC[C@H]1CC[C@H](c2cnc([C@H]3CC[C@H](C#N)CC3)nc2)CC1
72 | 249 to 250 °C | CCOC(=O)Cn1c(=O)[nH]c(=O)c2ccccc21

Row | melting point | SMILES
73 | 122 to 125 °C | Cn1nc(-c2ccccc2S(=O)(=O)Cl)oc1=O
74 | 187 to 188 °C | Cc1nc(N)c2nc(C)n(CCOCC#Cc3ccccc3)c2c1C
75 | 184 to 188 °C | O=C(Nc1cccc2c(=O)cc(C(=O)O)oc12)c1ccc2c(c1)CC(COCc1ccccc1)O2 (stereo unspecified)
76 | 140 °C | COC(C)(CC(=O)NC12CC3CC(CC(C3)C1)C2)OC
77 | 184 to 185 °C | Cc1oc(-c2ccccc2)nc1Cc1cc2cc(CCCC3OC(=O)NC3=O)ccc2o1 (stereo unspecified)
78 | 68 to 70 °C | CCC(Cl)C(=O)NCCSc1nc(C(C)(C)C)n[nH]1 (stereo unspecified)
79 | > 300 °C | C=CCn1c(=O)c2nc(-c3ccc(/C=C/C(=O)O)cc3)[nH]c2n(CC=C)c1=O
80 | 109 to 110 °C | COc1ccc(-c2nn(C3CCC3)c3c(C(F)(F)F)cccc23)c(OC)c1
81 | 113 to 114 °C | NSc1nccnc1Cl
82 | 105 °C | Cc1ccc(CN(O)C(N)=O)o1
83 | 108 to 109 °C | Cc1cc(C)c(N2CCCCC2=O)c(Cl)c1
84 | 62 to 64 °C | CS(=O)(=O)c1ccc(/C(=C\C2CCCCC2)C(=O)O)cc1C(F)(F)F
85 | 72 to 73 °C | CCN(CC(C)(C)C)c1nc2c(cc1CN(Cc1cc(C(F)(F)F)cc(C(F)(F)F)c1)c1nnn(C)n1)c(C)nn2C
86 | 172 to 174 °C | O=C(NNc1ccc(NC(=S)Nc2ccccc2)cc1)C(F)(F)F
87 | 214 to 215 °C | CC(=O)c1c(C)[nH]c(-c2ccccc2)c1N=Cc1ccc(Cl)cc1
88 | 144 to 145 °C | CCCCC(=N)NC(=O)Nc1ccc(OC)cc1
89 | 114 to 116 °C | CN(C)C=CC(=O)c1ccncc1
90 | 177 to 179 °C | O=c1[nH]c2c(F)cc([N+](=O)[O-])cc2o1
91 | 180 °C | CCCCc1nnc2ccccc2c1O
92 | 62 to 63.5 °C | N#CC(c1ccc(F)cc1)c1ccc(F)cc1
93 | 157 °C | Fc1ccc(F)c(CN2CCNc3ncc(-c4ccnc(N5CCOCC5)c4)cc32)c1Cl
94 | 104 °C | Cc1ncc(Cn2c(NC3CCN(CCNC(=O)c4cc5ccccc5n4C)CC3)nc3ccccc32)o1
95 | 156 to 158 °C | CC(C)(C)c1cc(Oc2ccc([N+](=O)[O-])c(O)c2)ccc1Oc1ccc([N+](=O)[O-])c(O)c1

Row | SMILES | melting point
96 | OC1(CSc2ccc(-c3ccccc3)cc2)CN2CCC1CC2 (stereo unspecified) | 145 to 147 °C
97 | Cc1ccc2cccc(N3CCNCC3)c2n1 | 163 to 164 °C
98 | CNCC(O)c1cccc(F)c1 (stereo unspecified) | 63 to 65 °C
99 | CN1Cc2c(-c3noc(CCl)n3)ncn2-c2ccc(Cl)cc2C1=O | 229 °C
100 | COC(=O)c1cc(OC(C)=O)c2cc(-c3ccc4c(c3)C(C)(C)CCC4(C)C)ccc2c1C | 170 °C
101 | CN(C)C1(c2cccs2)CCC(=O)CC1 | 102 to 103 °C
